Reference: patent publication US20240383874A1, “BENZENE RING DERIVATIVE, AND COMPOSITION AND PHARMACEUTICAL USE THEREOF” (Xizang Haisco Pharmaceutical Co., Ltd., priority 2020, published 2024)
Counter-ions that a name gives are not always drawn.

Test system: 22RV1 cells
Experiment: Experiment 2 on inhibiting 22RV1 cell proliferation (7 days, CellTiter-Glo)
Type: cell-based
Settings: Homo sapiens, 22Rv1, 168 h, 1% css-FBS phenol red-free medium, incubated with compound 7 days, read-out: IC50 values on proliferation inhibition of 22RV1 cells
Procedure: Prostate cancer cells 22RV1 were purchased from ATCC, the cell medium was RPMI 1640+10% FBS, and the cells were cultured in an incubator at 37° C. under 5% CO2. On day 1, the cells in an exponential phase were collected. With a 1% css-FBS phenol red-free medium, the cell suspension was adjusted to a corresponding concentration, plated at 2000 cells/well and incubated overnight. On day 2, compounds at different concentrations were added, and the plate was placed in the incubator and incubated for further 7 days. After the incubation was completed, according to operation instructions for a CellTiter-Glo kit (Promega, G7573), 50 μL of CTG solution, which was already pre-melted and equilibrated to room temperature, was added to each well, and the mixtures were uniformly mixed for 2 min using a microplate shaker. The plate was placed at room temperature for 10 min, and then fluorescence signal values were measured using a microplate reader (PHERAstar FSX). The results were processed according to formula (2), the survival rate of the compound at different concentrations was calculated, and the IC50 value of the compound with a survival rate of 50% was calculated using origin9.2 software with DoseResp function, wherein RLU compound was the readout of the treated group, and RLU control was the average value of the DMSO vehicle control group.

Compound | IC50 [nM]
CC(C)(c1ccc(OCc2ccnc(N3CCC(C4CCN(CC5CCN(c6ccc7c(c6)C(=O)N(C6CCC(=O)NC6=O)C7=O)CC5)CC4)CC3)n2)cc1)c1cc(Cl)cc(C#N)c1 (stereo not shown) [Compound 38 trifluoroacetate, 3-chloro-5-(2-(4-((2-(1′-((1-(2-(2,6-dioxopiperidin-3-yl)-1,3-dioxoisoindolin-5-yl)piperidin-4-yl)methyl)-[4,4′-bipiperidin]-1-yl)pyrimidin-4-yl)methoxy)phenyl)propan-2-yl)benzonitrile] | 883
CC(C)(c1ccc(OCc2ccnc(N3CCC(CN4CCN(c5cccc6c5C(=O)N(C5CCC(=O)NC5=O)C6=O)CC4)CC3)n2)cc1)c1cc(Cl)cc(C#N)c1 (stereo not shown) [Compound 39 trifluoroacetate, 3-chloro-5-(2-(4-((2-(4-((4-(2-(2,6-dioxopiperidin-3-yl)-1,3-dioxoisoindolin-4-yl)piperazin-1-yl)methyl)piperidin-1-yl)pyrimidin-4-yl)methoxy)phenyl)propan-2-yl)benzonitrile] | 936
CC(C)(c1ccc(OCc2ccnc(N3CCC(N4CCC(CN5CCN(c6cccc7c6C(=O)N(C6CCC(=O)NC6=O)C7=O)CC5)CC4)CC3)n2)cc1)c1cc(Cl)cc(C#N)c1 (stereo not shown) [Compound 40 trifluoroacetate, 3-chloro-5-(2-(4-((2-(4-((4-(2-(2,6-dioxopiperidin-3-yl)-1,3-dioxoisoindolin-4-yl)piperazin-1-yl)methyl)-[1,4′-bipiperidin]-1′-yl)pyrimidin-4-yl)methoxy)phenyl)propan-2-yl)benzonitrile] | 764
CC(C)(c1ccc(OCc2ccnc(N3CCC(CN4CCN(c5ccc6c(c5)C(=O)N(C5CCC(=O)NC5=O)C6=O)CC4)CC3)n2)cc1)c1cc(Cl)cc(C#N)c1 (stereo not shown) [Compound 41 trifluoroacetate, 3-chloro-5-(2-(4-((2-(4-((4-(2-(2,6-dioxopiperidin-3-yl)-1,3-dioxoisoindolin-5-yl)piperazin-1-yl)methyl)piperidin-1-yl)pyrimidin-4-yl)methoxy)phenyl)propan-2-yl)benzonitrile] | 633
CC(C)(c1ccc(OCc2ccnc(N3CC(N4CCC(CN5CCN(c6ccc7c(c6)C(=O)N(C6CCC(=O)NC6=O)C7=O)CC5)CC4)C3)n2)cc1)c1cc(Cl)cc(C#N)c1 (stereo not shown) [Compound 47 trifluoroacetate, 3-chloro-5-(2-(4-((2-(3-(4-((4-(2-(2,6-dioxopiperidin-3-yl)-1,3-dioxoisoindolin-5-yl)piperazin-1-yl)methyl)piperidin-1-yl)azetidin-1-yl)pyrimidin-4-yl)methoxy)phenyl)propan-2-yl)benzonitrile] | 724
CC(C)(c1ccc(OCc2ccnc(N3CC(N4CCC(CN5CCN(c6cccc7c6C(=O)N(C6CCC(=O)NC6=O)C7=O)CC5)CC4)C3)n2)cc1)c1cc(Cl)cc(C#N)c1 (stereo not shown) [Compound 48 trifluoroacetate, 3-chloro-5-(2-(4-((2-(3-(4-((4-(2-(2,6-dioxopiperidin-3-yl)-1,3-dioxoisoindolin-4-yl)piperazin-1-yl)methyl)piperidin-1-yl)azetidin-1-yl)pyrimidin-4-yl)methoxy)phenyl)propan-2-yl)benzonitrile] | 608
CC(C)(c1ccc(OCc2ccnc(N3CCN(C4CCN(CC5CCN(c6ccc7c(c6)C(=O)N(C6CCC(=O)NC6=O)C7=O)CC5)CC4)CC3)n2)cc1)c1cc(Cl)cc(C#N)c1 (stereo not shown) [Compound 49 trifluoroacetate, 3-chloro-5-(2-(4-((2-(4-(1-((1-(2-(2,6-dioxopiperidin-3-yl)-1,3-dioxoisoindolin-5-yl)piperidin-4-yl)methyl)piperidin-4-yl)piperazin-1-yl)pyrimidin-4-yl)methoxy)phenyl)propan-2-yl)benzonitrile] | 494
Cc1ncsc1-c1ccc([C@H](C)NC(=O)[C@@H]2C[C@@H](O)CN2C(=O)[C@@H](NC(=O)CN2CCC(CN3CCN(c4nccc(COc5ccc(C(C)(C)c6cc(Cl)cc(C#N)c6)cc5)n4)CC3)CC2)C(C)(C)C)cc1 [Compound 51 trifluoroacetate, (2S,4R)-1-((S)-2-(2-(4-((4-(4-((4-(2-(3-chloro-5-cyanophenyl)propan-2-yl)phenoxy)methyl)pyrimidin-2-yl)piperazin-1-yl)methyl)piperidin-1-yl)acetamido)-3,3-dimethylbutanoyl)-4-hydroxy-N-((S)-1-(4-(4-methylthiazol-5-yl)phenyl)ethyl)pyrrolidine-2-carboxamide] | 825
CC(C)(c1ccc(OCc2ccnc(N3CCN(C4CN(C5CCCN(c6ccc7c(c6)C(=O)N(C6CCC(=O)NC6=O)C7=O)C5)C4)CC3)n2)cc1)c1cc(Cl)cc(C#N)c1 (stereo not shown) [Compound 52 trifluoroacetate, 3-chloro-5-(2-(4-((2-(4-(1-(1-(2-(2,6-dioxopiperidin-3-yl)-1,3-dioxoisoindolin-5-yl)piperidin-3-yl)azetidin-3-yl)piperazin-1-yl)pyrimidin-4-yl)methoxy)phenyl)propan-2-yl)benzonitrile] | 956
CC(C)(c1ccc(OCc2ccnc(N3CCN(C4CN(C5CC6(CCN(c7ccc8c(c7)C(=O)N(C7CCC(=O)NC7=O)C8=O)CC6)C5)C4)CC3)n2)cc1)c1cc(Cl)cc(C#N)c1 (stereo not shown) [Compound 53 trifluoroacetate, 3-chloro-5-(2-(4-((2-(4-(1-(7-(2-(2,6-dioxopiperidin-3-yl)-1,3-dioxoisoindolin-5-yl)-7-azaspiro[3.5]nonan-2-yl)azetidin-3-yl)piperazin-1-yl)pyrimidin-4-yl)methoxy)phenyl)propan-2-yl)benzonitrile] | 623
CC(C)(c1ccc(OCc2ccnc(N3CCN(C4CN(C5CCN(c6ccc7c(c6)C(=O)N(C6CCC(=O)NC6=O)C7=O)C5)C4)CC3)n2)cc1)c1cc(Cl)cc(C#N)c1 (stereo not shown) [Compound 55 trifluoroacetate, 3-chloro-5-(2-(4-((2-(4-(1-(1-(2-(2,6-dioxopiperidin-3-yl)-1,3-dioxoisoindolin-5-yl)pyrrolidin-3-yl)azetidin-3-yl)piperazin-1-yl)pyrimidin-4-yl)methoxy)phenyl)propan-2-yl)benzonitrile] | 519

Stronger by IC50, values ahead:

IC50 [nM] | Compound
401 | Cn1c(=O)n(C2CCC(=O)NC2=O)c2cccc(CN3CC(N4CCC(N5CCC6(CCN(c7nccc(COc8ccc(C(C)(C)c9cc(Cl)c(OCCCl)c(C#N)c9)cc8)n7)CC6)CC5)CC4)C3)c21 (stereo not shown) [Compound 31 trifluoroacetate, 3-chloro-2-(2-chloroethoxy)-5-(2-(4-((2-(9-(1-(1-((1-(2,6-dioxopiperidin-3-yl)-3-methyl-2-oxo-2,3-dihydro-1H-benzo[d]imidazol-4-yl)methyl)azetidin-3-yl)piperidin-4-yl)-3,9-diazaspiro[5.5]undecan-3-yl)pyrimidin-4-yl)methoxy)phenyl)propan-2-yl)benzonitrile]
453 | CC(C)(c1ccc(OCc2ccnc(N3CCC(N4CCC(CN5CCN(c6ccc7c(c6)C(=O)N(C6CCC(=O)NC6=O)C7=O)CC5)CC4)CC3)n2)cc1)c1cc(Cl)cc(C#N)c1 (stereo not shown) [Compound 42 trifluoroacetate, 3-chloro-5-(2-(4-((2-(4-((4-(2-(2,6-dioxopiperidin-3-yl)-1,3-dioxoisoindolin-5-yl)piperazin-1-yl)methyl)-[1,4′-bipiperidin]-1′-yl)pyrimidin-4-yl)methoxy)phenyl)propan-2-yl)benzonitrile]
94 | Cc1ncsc1-c1ccc([C@H](C)NC(=O)[C@@H]2C[C@@H](O)CN2C(=O)[C@@H](NC(=O)CN2CCC(N3CCC(CN4CCN(c5nccc(COc6ccc(C(C)(C)c7cc(Cl)cc(C#N)c7)cc6)n5)CC4)CC3)CC2)C(C)(C)C)cc1 [Compound 43 trifluoroacetate, (2S,4R)-1-((S)-2-(2-(4-((4-(4-((4-(2-(3-chloro-5-cyanophenyl)propan-2-yl)phenoxy)methyl)pyrimidin-2-yl)piperazin-1-yl)methyl)-[1,4′-bipiperidin]-1′-yl)acetamido)-3,3-dimethylbutanoyl)-4-hydroxy-N-((S)-1-(4-(4-methylthiazol-5-yl)phenyl)ethyl)pyrrolidine-2-carboxamide]
461 | CC(C)(c1ccc(OCc2ccnc(N3CCN(C4CCN(C5CCC6(CC5)CN(c5ccc7c(c5)C(=O)N(C5CCC(=O)NC5=O)C7=O)C6)CC4)CC3)n2)cc1)c1cc(Cl)cc(C#N)c1 (stereo not shown) [Compound 46 trifluoroacetate, 3-chloro-5-(2-(4-((2-(4-(1-(2-(2-(2,6-dioxopiperidin-3-yl)-1,3-dioxoisoindolin-5-yl)-2-azaspiro[3.5]nonan-7-yl)piperidin-4-yl)piperazin-1-yl)pyrimidin-4-yl)methoxy)phenyl)propan-2-yl)benzonitrile]
398 | Cc1ncsc1-c1ccc([C@H](C)NC(=O)[C@@H]2C[C@@H](O)CN2C(=O)[C@@H](NC(=O)CN2CCC(CN3CCC(N4CCN(c5nccc(COc6ccc(C(C)(C)c7cc(Cl)cc(C#N)c7)cc6)n5)CC4)CC3)CC2)C(C)(C)C)cc1 [Compound 50 trifluoroacetate, (2S,4R)-1-((S)-2-(2-(4-((4-(4-(4-((4-(2-(3-chloro-5-cyanophenyl)propan-2-yl)phenoxy)methyl)pyrimidin-2-yl)piperazin-1-yl)piperidin-1-yl)methyl)piperidin-1-yl)acetamido)-3,3-dimethylbutanoyl)-4-hydroxy-N-((S)-1-(4-(4-methylthiazol-5-yl)phenyl)ethyl)pyrrolidine-2-carboxamide]
